Assays:
DUSP9 = target: T1, DUSP9 (Homo sapiens, UniProt Q99956); test: DUSP9 enzyme inhibition with DiFMUP substrate; format: biochemical; conditions: DiFMUP 90 µM, DUSP9 200 nM; NA: no activity
T1 construct: made in house; host or cells: Escherichia coli Rosetta (DE3)
T1 sequence (Q99956 1-384): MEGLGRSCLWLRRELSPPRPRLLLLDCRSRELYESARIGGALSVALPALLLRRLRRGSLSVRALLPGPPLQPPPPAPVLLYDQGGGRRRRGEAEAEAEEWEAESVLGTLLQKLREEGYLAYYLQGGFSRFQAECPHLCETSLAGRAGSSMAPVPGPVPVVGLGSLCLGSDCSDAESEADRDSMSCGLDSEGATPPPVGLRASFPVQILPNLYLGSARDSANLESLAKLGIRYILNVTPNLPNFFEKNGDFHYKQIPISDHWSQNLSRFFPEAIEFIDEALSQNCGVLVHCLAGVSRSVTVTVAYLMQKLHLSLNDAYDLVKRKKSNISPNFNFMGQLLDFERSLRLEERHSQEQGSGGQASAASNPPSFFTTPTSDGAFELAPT
Method: (§1) The purification and kinetic analyses of PTPN9 and DUSP9 (Ser277–581) were performed following methods described in the literature, with slight modifications. PAGE analysis data and enzyme kinetic constants are presented in Figure S1 and Table S1, respectively. Enzyme activity in the presence or absence of the compounds was measured using DiFMUP, a representative PTP fluorogenic substrate. First, the inhibitory effects of compounds 1–3 were evaluated using 50 µM PTPN9 and 20 µM DUSP9. There was an increase in the inhibitory activity of compound 1 for both enzymes as the number of CH2 units increased from 9 to 14 (Figure 2A,B).
(§2) Next, the IC50 values of the compounds, which induce a 50% inhibition of DiFMUP hydrolytic enzyme activity, were determined (Table 1). The IC50 values were determined from the dose–response enzyme inhibition curves of each compound. The dose–response curves for compounds 1e and 1f against PTPN9 and DUSP9, respectively, are presented in Figure 2C,D. Dose–response curves were also obtained for the other compounds (Figures S2 and S3).
(§3) The methods employed for PTP overexpression and purification have been described in a previous study. In brief, human PTPN9 and DUSP9 were cloned into a pET28a vector (Merk Millipore, Darmstadt, Germany) containing a hexahistidine (His6) tag or a maltose-binding protein (MBP) tag in its N-terminus (see Supplementary Materials). Recombinant genes were separately transformed into Escherichia coli Rosetta (DE3) (Merk Millipore, Darmstadt, Germany), and the overexpression of each gene was induced via the addition of 0.1 mM IPTG (Ducherfa Biochemie, Haarlem, RV, USA). After 16 h of incubation at 18 °C, cell pellets were obtained via centrifugation (3570× g at 4 °C for 15 min), resuspended in lysis buffer (50 mM Tris, pH: 7.5, 500 mM NaCl, 5% glycerol, 0.025% 2-mercaptoethanol, and 1 mM phenyl-methylsulfonyl fluoride (PMSF)), and lysed by ultrasonication. Subsequently, cell lysates were centrifuged at 29,820× g for 30 min at 4 °C; then, the supernatant was collected and incubated with a cobalt affinity resin (TALON® Metal Affinity Resin, Takara Korea, Seoul, Korea). After 1 h of incubation at 4 °C, the desired proteins were eluted by adding the lysis buffer supplemented with 100 mM imidazole. Samples were stored at –80 °C until use.
(§4) The enzymatic activities of purified PTPN9 and DUSP9 were measured using 6,8-difluoro-4-methylumbelliferyl phosphate (DiFMUP), the most widely used fluorogenic PTP substrate in the literature. To determine KM values, PTPN9 (0.15 nM) and DUSP9 (200 nM) were added to a reaction buffer (20 mM Bis-tris, pH: 7.0, 150 mM NaCl, 2.5 mM dithiothreitol (DTT), and 0.01% Triton X-100) containing DiFMUP (800, 400, 200, 100, 50, 25, 12.5, or 6.25 μM) in a 96-well black plate. The final reaction volume was 100 µL. The fluorescence intensity was continuously monitored for 10 min (Ex/Em = 355/460 nm) on a Victor™ X4 multilabel plate reader (Perkin Elmer, Norwalk, CT, USA). KM values were obtained using Lineweaver–Burk plots analysis.
(§5) To evaluate the enzyme inhibitory effects of GA and its analogs, 10 µl of the enzyme stock solution (1.5 nM PTPN9 and 2 µM DUSP9) in the reaction buffer was added into the mixture of DiFMUP (to a final concentration of 220 µM and 90 µM for PTPN9 and DUSP9, respectively) and each compound (to a final concentration of 50 µM and 20 µM for PTPN9 and DUSP9, respectively) was added to the reaction buffer. Enzyme activity was measured as described above. Half-inhibitory concentration (IC50) values were determined under similar conditions, except for the concentrations of the inhibitors (200, 100, 50, 25, 12.5, 6.25, or 3.125 µM for PTPN9 and 25, 12.5, 6.25, 3.125, 1.563, 0.782, or 0.391 µM for DUSP9). The dose-dependent curve was fitted to the four-parameter logistic regression equation, (y = a + (b – a)/(1 + (x/c)^d), to obtain IC50 values using the Kaleida Graph software Ver. 4.1.3. (Synergy Software Inc, PA, USA).

PTPN9 = target: T2, PTPN9 (Homo sapiens, UniProt P43378); test: PTPN9 enzyme inhibition with DiFMUP substrate; format: biochemical; conditions: DiFMUP 220 µM, PTPN9 0.15 nM; NA: no activity
T2 construct: made in house; host or cells: Escherichia coli Rosetta (DE3)
T2 sequence (P43378 277-581): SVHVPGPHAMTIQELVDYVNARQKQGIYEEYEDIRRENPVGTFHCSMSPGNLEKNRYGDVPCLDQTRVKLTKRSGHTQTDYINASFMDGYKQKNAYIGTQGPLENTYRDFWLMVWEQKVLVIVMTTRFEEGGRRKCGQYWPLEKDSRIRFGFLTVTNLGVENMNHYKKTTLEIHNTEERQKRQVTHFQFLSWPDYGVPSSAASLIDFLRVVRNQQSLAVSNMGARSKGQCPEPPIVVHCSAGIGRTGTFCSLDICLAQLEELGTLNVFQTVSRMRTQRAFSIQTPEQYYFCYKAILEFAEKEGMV
Method: as §1, §2, §3, §4, §5

| IC50 (DUSP9) | IC50 (PTPN9) | Structure (SMILES) |
| --- | --- | --- |
| 5.87 ± 0.55 µM | 10.2 ± 0.52 µM | CCCCCCCCCCCCCCCOc1cccc(O)c1C(=O)O [Compound 1f] |
| 6.4 ± 0.87 µM | 18.31 ± 0.17 µM | CCCCCCCCCCCCCOc1cccc(O)c1C(=O)O [Compound 1e] |

Source: article PMC8999917, “Structure–Activity Relationship of Synthetic Ginkgolic Acid Analogs for Treating Type 2 Diabetes by PTPN9 Inhibition” (International Journal of Molecular Sciences, 2022)
